Measured values published in US20260250318A1, “COMPOSITIONS AND METHODS FOR CROSSING THE BLOOD BRAIN BARRIER” (VOYAGER THERAPEUTICS, INC., priority 2022, published 2026).

Tested on: brain
Test: Maturation of TTM-001 capsid, NGS enrichment in brain of CD-1 Outbred mice
Assay type: in vivo
Conditions: NGS fold-enrichment of TTM-001 matured AAV capsid variants in the brain of CD-1 Outbred mice; intravenous 1.0×10^12 VG/dose; 14 days in life; RNA; relative to non-matured TTM-001 control
Description: This Example describes maturation of the TTM-001 (SEQ ID NO: 981 (amino acid) and 983 (DNA), comprising SEQ ID NO: 941) and TTM-002 (SEQ ID NO: 982 (amino acid) and 984 (DNA), comprising SEQ ID NO: 2) capsid variants to further enhance their transduction and biodistribution in the central nervous system and evolve the AAV capsid variants to provide further cross-species compatibility. Two approaches were used to mature the TTM-001 and TTM-002 capsid sequences in order to randomize and mutate within and around the peptide insert comprised within loop IV of the capsid variant. […] In the first maturation approach, sets of three contiguous amino acids were randomized across the mutagenesis region in the TTM-001 and TTM-002 sequences, which spanned from position 450 to position 466, numbered according to SEQ ID NO: 981 and 982. In the second maturation approach, mutagenic primers were used to introduce point mutations at a low frequency, scattered across the mutagenesis region in the TTM-001 and TTM-002 sequences ranging from position 449 to position 466, numbered according to SEQ ID NO: 981 and 982. AAV capsid variants arising from each maturation approach for TTM-001 were pooled together and AAV capsid variants arising from each maturation approach for TTM-002 were also pooled together, for subsequent testing and characterization in mice.
The library of pooled matured AAV capsid variants generated from TTM-001 or library of pooled matured AAV capsid variants generated from the TTM-002 matured AAV capsid variant each were intravenously injected into the tail vein of three female CD-1 Outbred mice (Charles River) at a dose of 1.0×10^12 VG/dose. After 14-days in life, the brains of the mice were isolated and RNA was extracted. Following RNA recovery and RT-PCR amplification, a systematic NGS enrichment analysis was performed to calculate the fold enrichment ratio relative to the corresponding TTM-001 or TTM-002 control, and the peptides comprised within the variants were identified. The data for the TTM-001 matured capsid variants is provided in Table 13 and the data for the TTM-002 matured capsid variants is provided in Table 14.

Sequence	Fold enrichment over TTM-001 [fold]
KTINGSGSPHEHNQNQQT	2.199
KTINGSGSPHSLSWNQQT	2.588
KTINGSGSPHSYLRNQQT	4.566
KTINGSGSPHSKALCRQT	2.048
KTINGSGSPHSKLIRQQT	3.968
KPLRGSGSPHSKAQNQQT	2.486
KTINGRSSPHRKAQNQQT	2.965
KTINTIESPHSKAQNQQT	2.331
KTINGSRSPHRSAQNQQT (peptide inserted in AAV capsid)	2.536
KTINGSGSPHSKARGIQT	2.140
KRSKGSGSPHSKAQNQQT	2.030
KTINGSCSPHPLAQNQQT	3.086
KTINGSGSPHSKAQNKRS	2.214
KTINGFRSPHLKAQNQQT	2.063
KTINGSGSPHSTWLNQQT	3.583
KTINGSGSPHSKSLKQQT	2.013
KTINGSGSPHSKALRFQT	3.894
KTINGSGSPHSKAQNARH	2.127
KTINGTRSPHTKAQNQQT	2.203
KTINGSGSPHSKAYLRQT	3.356
KTINGSWSPHLVAQNQQT (peptide inserted in AAV capsid)	2.084
KTINGSGSPHSMLYNQQT	2.808
KTINGRPSPHSKAQNQQT	2.276

Sequence	Fold enrichment over TTM-001 [fold]
KTINMRVSPHSKAQNQQT	3.073
KTINGSGSPHSSCQNQQT	2.365
KTINGSSSPHSWAQNQQT (peptide inserted in AAV capsid)	2.119
KTINSRFSPHSKAQNQQT	2.032
KTINGSGSPHSKRGTQQT	2.022
KTINGSGSPHFLNQNQQT	2.359
KTINGSGSPHFMRQNQQT	2.123
KTINGSGSPHSRRLNQQT	3.251
KTINGVVSPHRKAQNQQT	3.106
KTINGKTSPHGKAQNQQT	2.717
KTINGSGSPHSKAQVLIT	2.317
KTINGSGSPHSKCLNQQT	2.594
KEVGGSGSPHSKAQNQQT	2.358
KTINGSGSPHSKLPRQQT	2.562
KTINGSGSPHSKARRLQT	4.210
KTINGSGSPHSKAARTQT	2.266
KTINGSGSPHGWAQNQQT	2.121
KTINGSGSPHSSKRNQQT	2.978
KTINGSTSPHWSAQNQQT (peptide inserted in AAV capsid)	2.043
KTINGSGSPHSKAQRRQT	2.479
KTINGSGSPHLWSQNQQT	3.857
KTINGSGSPHPLFQNQQT	2.233
KTINGSTSPHYLAQNQQT (peptide inserted in AAV capsid)	2.665
